The test system of this test is BV-2 (mouse microglia) cells. In words: progranulin secretion from BV-2 cells, mouse progranulin ELISA of conditioned media. The class given is cell-based. As to conditions: BV-2 cells, 16 hours incubation, 8-point curves starting at 10 μM. The gist of the method:
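Mouse BV-2 microglia plated at 30,000 cells/well in RPMI/L-glutamine with 2% Fetal clone serum II, 1 h attachment. Treated for 16 h with 8-point half-log dilutions from 10 μM. Secreted progranulin measured by mouse progranulin ELISA on 1:10-diluted conditioned media.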
On the technique in general: An ELISA detects its analyte on a solid surface through an enzyme-linked reagent.

The mark [1] stands for this setting: Mus musculus, BV-2, 16 h, assay run v1, read-out: PRGN v1 (EC50, progranulin secretion).
[2] abbreviates: Mus musculus, BV-2, 16 h, assay run v2 (same protocol, different assay), read-out: PRGN v2 (EC50, progranulin secretion).
The mark [3] stands for this setting: Mus musculus, assay run v2 (same protocol, different assay), read-out: PRGN v2 (EC50, progranulin secretion).
Where [4] appears, read: assay run v2 (same protocol, different assay), read-out: PRGN v2 (EC50, progranulin secretion).

In general, EC50 refers to the concentration that produces a half-maximal response.

Like-named read-outs stand apart in the source and are kept apart here.

As to `O=C(N[C@@H]1CN2CCC1CC2)N1CCc2ccccc2[C@H]1c1ccc(-n2cnnc2)cc1` [Compound 1114], the EC50 is, setting by setting: under setting [1], > 10 µM; under setting [2], > 10 µM.

As to `O=C(N[C@@H]1CN2CCC1CC2)N1CCc2ccccc2[C@@H]1c1ccc(OC2CC2)cc1` [Compound 1115], the EC50 is, setting by setting: under setting [1], 3.95 µM; under setting [2], 1.18 µM.

`O=C(N[C@@H]1CN2CCC1CC2)N1CCc2ccccc2[C@H]1c1ccc(OC2CC2)cc1` [Compound 1116]: the EC50 was 4.47 µM under setting [1] and > 10 µM under setting [2]. Regarding `O=C(N[C@@H]1CN2CCC1CC2)N1CCc2ccccc2[C@@H]1c1cnc2nccn2c1` [Compound 1117], the EC50 was > 10 µM under setting [1] and > 10 µM under setting [2]. Consider `O=C(N[C@@H]1CN2CCC1CC2)N1CCc2ccccc2[C@H]1c1cnc2nccn2c1` [Compound 1118], for which the half-maximal effective concentration (EC50) under setting [1] is > 10 µM and the EC50 under setting [2] is > 10 µM. As to `O=C1CCCN1c1ccc([C@H]2c3ccccc3CCN2C(=O)N[C@@H]2CN3CCC2CC3)cc1` [Compound 1119], the EC50 under setting [1] was > 10 µM and the EC50 under setting [2] is > 10 µM.

For `O=C1CCCN1c1ccc([C@@H]2c3ccccc3CCN2C(=O)N[C@@H]2CN3CCC2CC3)cc1` [Compound 1120], the EC50 under setting [1] was > 10 µM and the EC50 under setting [2] is > 10 µM.

With `O=C(N[C@@H]1CN2CCC1CC2)N1CCc2cccnc2[C@@H]1c1ccc(Cl)cc1` [Compound 1121], the EC50 is > 10 µM under setting [1] and 5.22 µM under setting [2].

Consider `O=C(N[C@@H]1CN2CCC1CC2)N1CCc2cccnc2[C@H]1c1ccc(Cl)cc1` [Compound 1122], for which the EC50 was 3.13 µM under setting [1] and > 10 µM under setting [2]. The like results for `CS(=O)(=O)N1CC([C@H]2c3ccccc3CCN2C(=O)N[C@@H]2CN3CCC2CC3)C1` [Compound 1123] were, in that order, > 10 µM and > 10 µM. The like results for `CS(=O)(=O)N1CC([C@@H]2c3ccccc3CCN2C(=O)N[C@@H]2CN3CCC2CC3)C1` [Compound 1124] were, in that order, > 10 µM and > 10 µM. On to `O=C(Cc1ccccc1)N1CCc2ccccc2[C@@H]1c1ccc(F)cc1` [Compound 1125, (S)-1-(1-(4-fluorophenyl)-3,4-dihydroisoquinolin-2(1H)-yl)-2-phenylethanone], for which the EC50 under setting [2] is > 10 µM. Regarding `O=C(O[C@@H]1CN2CCC1CC2)N1CCc2ccccc2[C@@H]1c1ccc(C(F)(F)F)cc1` [Compound 1126], the half-maximal effective concentration (EC50) under setting [3] was found to be 8.6 µM. For `O=C(O[C@@H]1CN2CCC1CC2)N1CCc2ccccc2[C@H]1c1ccc(C(F)(F)F)cc1` [Compound 1127], the concentration giving a half-maximal response (EC50) under setting [3] was > 10 µM.

In the case of `O=C(O[C@@H]1CN2CCC1CC2)N1CCc2ccccc2[C@@H]1c1ccc(OC(F)(F)F)cc1` [Compound 1128], the EC50 under setting [3] came to 2.6 µM. For the compound `O=C(O[C@@H]1CN2CCC1CC2)N1CCc2ccccc2[C@H]1c1ccc(OC(F)(F)F)cc1` [Compound 1129], the EC50 under setting [3] is 4.35 µM. For `CN(C(=O)N1CCc2ccccc2[C@@H]1c1ccc(F)cc1)[C@@H]1CN2CCC1CC2` [Compound 1130], under setting [2], the EC50 is 1.03 µM.

Take `CN(C(=O)N1CCc2ccccc2[C@@H]1c1ccc(F)cc1)[C@H]1CN2CCC1CC2` [Compound 1131]: the EC50 under setting [2] was > 10 µM. Turning to `Cc1nc2cc([C@H]3c4ccccc4CCN3C(=O)O[C@@H]3CN4CCC3CC4)ccc2s1` [Compound 1132], under setting [3], the EC50 was > 10 µM.

Regarding `Cc1nc2cc([C@@H]3c4ccccc4CCN3C(=O)O[C@@H]3CN4CCC3CC4)ccc2s1` [Compound 1133], the EC50 under setting [3] is 9.28 µM. For the compound `O=C(O[C@@H]1CN2CCC1CC2)N1CCc2ccccc2[C@@H]1COc1ccc(F)cc1` [Compound 1134], under setting [4], the EC50 is > 10 µM. `O=C(O[C@@H]1CN2CCC1CC2)N1CCc2ccccc2[C@H]1COc1ccc(F)cc1` [Compound 1135]: the EC50 under setting [4] is > 10 µM. In the case of `O=S(=O)(C[C@@H]1CN2CCC1CC2)N1CCc2ccccc2[C@@H]1c1ccc(F)cc1` [Compound 1136], the EC50 under setting [2] amounted to 1.7 µM. Same read-out and setting: the value for `O=S(=O)(C[C@H]1CN2CCC1CC2)N1CCc2ccccc2[C@@H]1c1ccc(F)cc1` [Compound 1137] was 4.41 µM.
